Assay results as given in ChEMBL document CHEMBL4028831, “Improvement of hERG-ROMK index of spirocyclic ROMK inhibitors through scaffold optimization and incorporation of novel pharmacophores” (Bioorg Med Chem Lett, 2017).
The source made the active and inactive calls. No cut-off for these calls is given here.

Key:
[1] = Fraction unbound in rat plasma; format: ADME, cell-free
Cytochrome P450 3A4 = Cytochrome P450 3A4 (Homo sapiens, UniProt P08684); test: Time dependent inhibition of CYP3A4 (unknown origin) in absence of NADPH; format: ADME
[2] = Clearance in Beagle dog at 1 mg/kg, iv; format: ADME, organism-based, Canis lupus familiaris; conditions: in vivo
[3] = target: T1, Inward rectifier potassium channel 2 (Homo sapiens, UniProt P63252); test: Inhibition of Kir2.1 (unknown origin)
T1 sequence (P63252 whole entry): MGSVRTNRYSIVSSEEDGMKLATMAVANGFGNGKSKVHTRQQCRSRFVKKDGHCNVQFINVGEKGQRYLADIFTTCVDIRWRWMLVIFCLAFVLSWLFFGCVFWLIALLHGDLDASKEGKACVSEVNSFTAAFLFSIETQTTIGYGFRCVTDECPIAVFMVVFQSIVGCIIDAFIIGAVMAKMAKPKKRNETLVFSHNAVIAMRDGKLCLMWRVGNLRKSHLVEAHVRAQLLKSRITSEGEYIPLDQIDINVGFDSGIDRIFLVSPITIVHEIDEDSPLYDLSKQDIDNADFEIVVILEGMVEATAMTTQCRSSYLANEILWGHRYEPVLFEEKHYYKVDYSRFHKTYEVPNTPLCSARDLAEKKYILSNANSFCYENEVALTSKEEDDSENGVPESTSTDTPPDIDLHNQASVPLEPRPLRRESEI

Rattus norvegicus = test: Antihypertensive activity in rat spontaneous hypertensive model assessed as induction of kaliuresis at 3 mg/kg, po qd measured after 3 days; format: functional, organism-based
[4] = Half life in Beagle dog at 1 mg/kg, iv; format: ADME, organism-based, Canis lupus familiaris; conditions: in vivo
[5] = Clearance in Wistar Han rat at 1 mg/kg, iv or 2 mg/kg, po; conditions: in vivo
[6] = target: T2, Nuclear receptor subfamily 1 group I member 2 (Homo sapiens, UniProt O75469); test: Activity at PXR (unknown origin) assessed as CYP induction
T2 sequence (O75469 whole entry): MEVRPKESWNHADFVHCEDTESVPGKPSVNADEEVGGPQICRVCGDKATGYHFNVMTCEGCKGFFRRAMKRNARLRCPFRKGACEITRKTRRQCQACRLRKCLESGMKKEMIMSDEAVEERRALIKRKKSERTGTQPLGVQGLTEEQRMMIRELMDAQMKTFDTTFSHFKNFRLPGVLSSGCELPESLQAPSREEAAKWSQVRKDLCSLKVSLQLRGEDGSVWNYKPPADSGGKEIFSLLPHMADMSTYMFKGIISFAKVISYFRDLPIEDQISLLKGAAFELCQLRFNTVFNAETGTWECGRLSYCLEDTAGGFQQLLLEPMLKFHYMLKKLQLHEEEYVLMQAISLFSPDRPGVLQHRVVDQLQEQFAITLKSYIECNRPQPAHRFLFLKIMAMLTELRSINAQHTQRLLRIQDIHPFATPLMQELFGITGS

[7] = Half life in Wistar Han rat at 1 mg/kg, iv or 2 mg/kg, po; conditions: in vivo
in vivo = conditions: Wistar Han, rat, po, 2 mg/kg

Sequence of Cytochrome P450 3A4 (P08684 whole entry): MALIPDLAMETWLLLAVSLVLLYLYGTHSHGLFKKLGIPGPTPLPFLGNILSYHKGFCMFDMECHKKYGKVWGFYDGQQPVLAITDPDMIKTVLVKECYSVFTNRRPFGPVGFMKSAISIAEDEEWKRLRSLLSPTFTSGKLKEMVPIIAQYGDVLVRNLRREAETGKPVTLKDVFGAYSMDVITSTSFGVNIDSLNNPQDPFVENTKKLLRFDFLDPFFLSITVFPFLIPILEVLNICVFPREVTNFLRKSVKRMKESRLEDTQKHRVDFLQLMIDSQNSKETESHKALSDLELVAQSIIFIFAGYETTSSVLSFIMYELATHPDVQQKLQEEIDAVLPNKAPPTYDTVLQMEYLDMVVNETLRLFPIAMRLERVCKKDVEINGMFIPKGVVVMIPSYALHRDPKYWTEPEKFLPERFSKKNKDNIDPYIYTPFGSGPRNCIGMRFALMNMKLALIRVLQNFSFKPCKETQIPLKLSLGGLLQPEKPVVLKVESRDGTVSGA

- fraction unbound [1]: 0.455
- IC50 (Cytochrome P450 3A4): > 50 µM
- clearance [2]: 18.3 mL/min/kg
- IC50 [3]: > 100 µM
- half-life [4]: 5.8 h
- clearance [5]: 25 mL/min/kg
- IC50 [6]: > 30 µM
- half-life [7]: 2.8 h
- bioavailability (in vivo): 78%
Structure (SMILES): Cc1c([C@@H](O)CN2CCC3(CC2)CCN(c2ccc(=O)n(C)n2)C3=O)ccc2c1COC2=O
- Activity (Rattus norvegicus): inactive
